According to paper doi:10.1101/2024.01.31.578122v1 (biorxiv, 2024):

Experiments:
[1] = biological target: TRIM21 PRYSPRY (PRYSPRY domain of TRIM21) (Homo sapiens, UniProt P19474); assay: microscale thermophoresis, RED-NHS labelled protein; type: binding
[2] = biological target: TRIM21 PRYSPRY (PRYSPRY domain of TRIM21) (Homo sapiens, UniProt P19474, D355A); assay: isothermal titration calorimetry; type: binding
Chain of TRIM21 PRYSPRY (PRYSPRY domain of TRIM21) (Homo sapiens, UniProt P19474, D355A) (P19474 287-465 D355A): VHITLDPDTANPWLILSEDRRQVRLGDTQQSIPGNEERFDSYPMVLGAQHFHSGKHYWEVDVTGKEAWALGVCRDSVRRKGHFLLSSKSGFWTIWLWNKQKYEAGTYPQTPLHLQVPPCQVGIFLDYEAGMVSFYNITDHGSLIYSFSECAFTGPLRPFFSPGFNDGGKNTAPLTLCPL

Chain of TRIM21 PRYSPRY (PRYSPRY domain of TRIM21) (Homo sapiens, UniProt P19474) (P19474 287-465): as the sequence (P19474 287-465 D355A) above, with A69D counted along it

| Kd [1] [µM] | Kd [2] [µM] | Compound |
| --- | --- | --- |
| 44.6 | 5.66 | CC(=O)c1ccc2c(c1)N(CCCN(C)C)c1ccccc1S2 [acepromazine] |
| 237 | 17.9 | C[C@H](O)c1ccc2c(c1)N(CCCN(C)C)c1ccccc1S2 [(S)-hydroxyl-acepromazine] |
|  | 9.11 | C[C@@H](O)c1ccc2c(c1)N(CCCN(C)C)c1ccccc1S2 [(R)-ACE-OH] |
